The source made the active and inactive calls. No cut-off for these calls is given here.
Key:
Format in all cases: functional, cell-based
CCRF-CEM [1] = experiment: Potentiation of BKM120-induced antileukemic activity against human CCRF-CEM cells at 4.3 uM in presence of bone-marrow derived stromal cell-conditioned medium
CCRF-CEM [2] = experiment: Potentiation of tipifarnib-induced antileukemic activity against human CCRF-CEM cells at 4.3 uM in presence of bone-marrow derived stromal cell-conditioned medium
U-937 [3] = experiment: Potentiation of SGI-110-induced antileukemic activity against human U-937 cells at 4.3 uM in presence of bone-marrow derived stromal cell-conditioned medium
CCRF-CEM [4] = experiment: Potentiation of lapatinib-induced antileukemic activity against human CCRF-CEM cells at 4.3 uM in presence of bone-marrow derived stromal cell-conditioned medium
U-937 [5] = experiment: Potentiation of AGI-5198-induced antileukemic activity against human U-937 cells at 4.3 uM in presence of bone-marrow derived stromal cell-conditioned medium
CCRF-CEM [6] = experiment: Potentiation of docetaxel-induced antileukemic activity against human CCRF-CEM cells at 4.3 uM in presence of bone-marrow derived stromal cell-conditioned medium
[7] = tested on: Acute myeloid leukemic cell; experiment: Potentiation of birinapant-induced antileukemic activity against patient derived mouse xenografted acute myeloid leukemic cells assessed as cell viability in absence of bone-marrow derived stromal cell-conditioned medium measured after 72 to 144 hrs by cell-titre glo luminescent assay; conditions: Homo sapiens, dose microM <=10, time lower […], time upper 144.0 hrs
CCRF-CEM [8] = experiment: Potentiation of cladribine-induced antileukemic activity against human CCRF-CEM cells at 4.3 uM in presence of bone-marrow derived stromal cell-conditioned medium
MOLM-14 [9] = experiment: Potentiation of panobinostat-induced antileukemic activity against human MOLM-14 cells at 4.3 uM in presence of bone-marrow derived stromal cell-conditioned medium
U-937 [10] = experiment: Potentiation of gileritinib-induced antileukemic activity against human U-937 cells at 4.3 uM in presence of bone-marrow derived stromal cell-conditioned medium
U-937 [11] = experiment: Potentiation of trametinib-induced antileukemic activity against human U-937 cells at 4.3 uM in presence of bone-marrow derived stromal cell-conditioned medium
CCRF-CEM [12] = experiment: Potentiation of GSK126-induced antileukemic activity against human CCRF-CEM cells at 4.3 uM in presence of bone-marrow derived stromal cell-conditioned medium
MOLM-14 [13] = experiment: Potentiation of everolimus-induced antileukemic activity against human MOLM-14 cells at 4.3 uM in presence of bone-marrow derived stromal cell-conditioned medium
U-937 [14] = experiment: Potentiation of OTX015-induced antileukemic activity against human U-937 cells at 4.3 uM in presence of bone-marrow derived stromal cell-conditioned medium
U-937 [15] = experiment: Potentiation of everolimus-induced antileukemic activity against human U-937 cells at 4.3 uM in presence of bone-marrow derived stromal cell-conditioned medium
U-937 [16] = experiment: Potentiation of vincristine-induced antileukemic activity against human U-937 cells at 4.3 uM in presence of bone-marrow derived stromal cell-conditioned medium
U-937 [17] = experiment: Potentiation of daunorubicine-induced antileukemic activity against human U-937 cells at 4.3 uM in presence of bone-marrow derived stromal cell-conditioned medium
CCRF-CEM [18] = experiment: Potentiation of niotinib-induced antileukemic activity against human CCRF-CEM cells at 4.3 uM in presence of bone-marrow derived stromal cell-conditioned medium
CCRF-CEM [19] = experiment: Potentiation of AraC-induced antileukemic activity against human CCRF-CEM cells at 4.3 uM in presence of bone-marrow derived stromal cell-conditioned medium
U-937 [20] = experiment: Potentiation of bleomycine-induced antileukemic activity against human U-937 cells at 4.3 uM in presence of bone-marrow derived stromal cell-conditioned medium
U-937 [21] = experiment: Potentiation of sunitinib-induced antileukemic activity against human U-937 cells at 4.3 uM in presence of bone-marrow derived stromal cell-conditioned medium
U-937 [22] = experiment: Potentiation of idasanutlin-induced antileukemic activity against human U-937 cells at 4.3 uM in presence of bone-marrow derived stromal cell-conditioned medium
CCRF-CEM [23] = experiment: Potentiation of trametinib-induced antileukemic activity against human CCRF-CEM cells at 4.3 uM in presence of bone-marrow derived stromal cell-conditioned medium
U-937 [24] = experiment: Potentiation of midostaurin-induced antileukemic activity against human U-937 cells at 4.3 uM in presence of bone-marrow derived stromal cell-conditioned medium
U-937 [25] = experiment: Potentiation of dexamethasone-induced antileukemic activity against human U-937 cells at 4.3 uM in presence of bone-marrow derived stromal cell-conditioned medium
U-937 [26] = experiment: Potentiation of idelalisib-induced antileukemic activity against human U-937 cells at 4.3 uM in presence of bone-marrow derived stromal cell-conditioned medium
MOLM-14 [27] = experiment: Potentiation of dexamethasone-induced antileukemic activity against human MOLM-14 cells at 4.3 uM in presence of bone-marrow derived stromal cell-conditioned medium
MOLM-14 [28] = experiment: Potentiation of docetaxel-induced antileukemic activity against human MOLM-14 cells at 4.3 uM in presence of bone-marrow derived stromal cell-conditioned medium
U-937 [29] = experiment: Potentiation of alisertib-induced antileukemic activity against human U-937 cells at 4.3 uM in presence of bone-marrow derived stromal cell-conditioned medium
CCRF-CEM [30] = experiment: Potentiation of -nutlin 3-induced antileukemic activity against human CCRF-CEM cells at 4.3 uM in presence of bone-marrow derived stromal cell-conditioned medium
U-937 [31] = experiment: Potentiation of metformin -induced antileukemic activity against human U-937 cells at 4.3 uM in presence of bone-marrow derived stromal cell-conditioned medium
[32] = tested on: Acute myeloid leukemic cell; experiment: Potentiation of vorinostat-induced antileukemic activity against patient derived mouse xenografted acute myeloid leukemic cells assessed as cell viability at 0.16 to 10 uM in absence of bone-marrow derived stromal cell-conditioned medium measured after 72 to 144 hrs by cell-titre glo luminescent assay; conditions: Homo sapiens, dose 0.16-10 µM, time lower […], time upper 144.0 hrs
MOLM-14 [33] = experiment: Potentiation of EPZ5676-induced antileukemic activity against human MOLM-14 cells at 4.3 uM in presence of bone-marrow derived stromal cell-conditioned medium
CCRF-CEM [34] = experiment: Potentiation of bleomycine-induced antileukemic activity against human CCRF-CEM cells at 4.3 uM in presence of bone-marrow derived stromal cell-conditioned medium
U-937 [35] = experiment: Potentiation of idarubicin-induced antileukemic activity against human U-937 cells at 4.3 uM in presence of bone-marrow derived stromal cell-conditioned medium
MOLM-14 [36] = experiment: Potentiation of cladribine-induced antileukemic activity against human MOLM-14 cells at 4.3 uM in presence of bone-marrow derived stromal cell-conditioned medium
MOLM-14 [37] = experiment: Potentiation of rigosertib-induced antileukemic activity against human MOLM-14 cells at 4.3 uM in presence of bone-marrow derived stromal cell-conditioned medium
MOLM-14 [38] = experiment: Potentiation of quizartinib-induced antileukemic activity against human MOLM-14 cells at 4.3 uM in presence of bone-marrow derived stromal cell-conditioned medium
U-937 [39] = experiment: Potentiation of topotecan-induced antileukemic activity against human U-937 cells at 4.3 uM in presence of bone-marrow derived stromal cell-conditioned medium
MOLM-14 [40] = experiment: Potentiation of -nutlin 3-induced antileukemic activity against human MOLM-14 cells at 4.3 uM in presence of bone-marrow derived stromal cell-conditioned medium

CC(=O)N1CCc2c(sc3nc(SCC(=O)Nc4cccnc4C)n(Cc4ccco4)c(=O)c23)C1
Activity (CCRF-CEM [1]): inactive
Activity (CCRF-CEM [2]): inactive
Activity (U-937 [3]): inactive
Activity (CCRF-CEM [4]): inactive
Activity (U-937 [5]): inactive
Activity (CCRF-CEM [6]): inactive
Activity [7]: Dose-Dependent Effect
Activity (CCRF-CEM [8]): inactive
Activity (MOLM-14 [9]): inactive
Activity (U-937 [10]): inactive
Activity (U-937 [11]): inactive
Activity (CCRF-CEM [12]): inactive
Activity (MOLM-14 [13]): inactive
Activity (U-937 [14]): inactive
Activity (U-937 [15]): inactive
Activity (U-937 [16]): inactive
Activity (U-937 [17]): inactive
Activity (CCRF-CEM [18]): inactive
Activity (CCRF-CEM [19]): inactive
Activity (U-937 [20]): inactive
Activity (U-937 [21]): inactive
Activity (U-937 [22]): inactive
Activity (CCRF-CEM [23]): inactive
Activity (U-937 [24]): inactive
Activity (U-937 [25]): inactive
Activity (U-937 [26]): inactive
Activity (MOLM-14 [27]): inactive
Activity (MOLM-14 [28]): inactive
Activity (U-937 [29]): inactive
Activity (CCRF-CEM [30]): inactive
Activity (U-937 [31]): inactive
Activity [32]: inactive
Activity (MOLM-14 [33]): inactive
Activity (CCRF-CEM [34]): inactive
Activity (U-937 [35]): inactive
Activity (MOLM-14 [36]): inactive
Activity (MOLM-14 [37]): inactive
Activity (MOLM-14 [38]): inactive
Activity (U-937 [39]): inactive
Activity (MOLM-14 [40]): inactive

Source: ChEMBL document CHEMBL5046315, “CRCM5484: A BET-BDII Selective Compound with Differential Anti-leukemic Drug Modulation” (J Med Chem, 2022)
